Source: patent publication US20200054651A1, “COMPOSITIONS AND METHODS FOR MODULATING PPP2R1A” (The Regents of the University of California, priority 2017, published 2020)

What was measured:
MCF7 cells = assay: MCF7 cell proliferation; format: cell-based; conditions: 10 μM, 48 h
HCC38 cells [1] = assay: HCC38 cell proliferation; format: cell-based; conditions: 10 μM, 48 h
HCC38 cells [2] = assay: HCC38 serum-free cell survival; format: cell-based; conditions: 10 μM, 48 h
pure human KEAP1 = molecular target: T1, pure human KEAP1 (Homo sapiens, UniProt Q14145); assay: Gel-based ABPP, competition against IAyne labeling; format: binding; conditions: 10 μM, 30 min at 37° C.
T1 construct: purchased Origene
T1 sequence (Q14145 whole entry): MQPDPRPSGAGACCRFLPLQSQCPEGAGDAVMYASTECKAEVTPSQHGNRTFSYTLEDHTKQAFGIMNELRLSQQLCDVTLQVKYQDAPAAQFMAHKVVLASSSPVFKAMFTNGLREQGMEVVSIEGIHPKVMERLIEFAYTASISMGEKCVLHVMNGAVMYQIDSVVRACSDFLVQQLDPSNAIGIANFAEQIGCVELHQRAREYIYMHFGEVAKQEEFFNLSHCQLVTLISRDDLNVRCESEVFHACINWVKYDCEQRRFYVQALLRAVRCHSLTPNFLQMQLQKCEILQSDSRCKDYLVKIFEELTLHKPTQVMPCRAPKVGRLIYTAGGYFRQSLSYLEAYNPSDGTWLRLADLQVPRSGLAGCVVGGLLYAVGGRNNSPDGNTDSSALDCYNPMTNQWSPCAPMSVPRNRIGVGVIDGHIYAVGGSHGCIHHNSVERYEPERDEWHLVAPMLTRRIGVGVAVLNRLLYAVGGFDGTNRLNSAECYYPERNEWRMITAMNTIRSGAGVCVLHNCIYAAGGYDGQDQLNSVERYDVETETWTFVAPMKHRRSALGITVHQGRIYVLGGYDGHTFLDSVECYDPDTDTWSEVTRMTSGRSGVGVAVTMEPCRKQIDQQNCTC
Description: (§1) Gel-based ABPP methods were performed using the methods described in “Chem Biol 22(10), 1394-1405 (2015)” by Medina-Cleghorn D., et al. Recombinant pure human proteins were purchased from Origene. Pure proteins were pre-treated with DMSO, Withaferin A, or acrylamide or chloroacetamide compounds (e.g., DKM 2-90 or JNS 1-40) for 30 minutes at 37° C. in an incubation volume of PBS (50 μL), and were subsequently treated with IAyne (10 μM final concentration) for 30 minutes at room temperature. CuAAC was performed to append rhodamine-azide onto IAyne probe-labeled proteins. The samples were separated by SDS/PAGE and scanned using a ChemiDoc MP. Inhibition of target labeling was assessed by densitometry using ImageStudio Light software.

pure human vimentin = molecular target: T2, pure human vimentin (Homo sapiens, UniProt P08670); assay: Gel-based ABPP, competition against IAyne labeling; format: binding; conditions: 10 μM, 30 min at 37° C.
T2 construct: purchased Origene
T2 sequence (P08670 whole entry): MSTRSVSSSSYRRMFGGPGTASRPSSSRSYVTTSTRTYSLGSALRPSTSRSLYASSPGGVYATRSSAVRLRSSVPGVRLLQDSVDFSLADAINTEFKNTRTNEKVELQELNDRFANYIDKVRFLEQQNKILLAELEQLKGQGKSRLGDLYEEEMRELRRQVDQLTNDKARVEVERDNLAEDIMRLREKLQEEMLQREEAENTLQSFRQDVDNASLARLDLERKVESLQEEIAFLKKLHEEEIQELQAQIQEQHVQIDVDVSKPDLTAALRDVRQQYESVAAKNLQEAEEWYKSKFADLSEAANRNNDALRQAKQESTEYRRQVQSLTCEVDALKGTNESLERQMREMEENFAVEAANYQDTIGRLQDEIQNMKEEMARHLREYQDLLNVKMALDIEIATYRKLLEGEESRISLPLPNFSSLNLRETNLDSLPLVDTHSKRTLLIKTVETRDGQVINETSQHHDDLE
Description: as §1

[3] = In vivo tolerability during xenograft treatment; conditions: daily treatment for >30 days, 50 mg/kg ip
[4] = tested on: MCF 10A non-transformed mammary epithelial cells; assay: MCF 10A cell proliferation (toxicity to non-transformed cells); format: cell-based; conditions: 48 h after treatment, Hoescht staining
CLIC4 C35 = molecular target: T3, CLIC4 C35 (Homo sapiens, UniProt Q9Y696); assay: isoTOP-ABPP after in situ treatment of 231MFP cells; format: binding; conditions: 100 μM, 4 h in 231MFP cells in situ
T3 construct: IsoTOP-ABPP analysis of DKM 2-90 treatment in 231MFP cells in situ; endogenous in cells; host or cells: 231MFP cells
T3 sequence (Q9Y696 whole entry): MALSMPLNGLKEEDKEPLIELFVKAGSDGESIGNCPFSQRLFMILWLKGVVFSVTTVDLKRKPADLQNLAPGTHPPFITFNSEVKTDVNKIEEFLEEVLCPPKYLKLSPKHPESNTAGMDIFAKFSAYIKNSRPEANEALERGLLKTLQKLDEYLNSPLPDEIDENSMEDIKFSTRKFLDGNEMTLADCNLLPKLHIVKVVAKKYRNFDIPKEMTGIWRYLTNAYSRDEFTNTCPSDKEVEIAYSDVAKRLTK
Description: (§2) IsoTOP-ABPP studies were performed using the methods described in “Nature 534(7608), 570-574 (2016)” by Backus K. M., et al. and “Nature 468(7325), 790-795 (2010)” by Weerapana E., et al. […] Then, IAyne (iodoacetamide-alkyne) labeling was performed for 1 hour at room temperature. CuAAC was used by sequential addition of tris(2-carboxyethyl)phosphine (1 mM), tris[(1-benzyl-1H-1,2,3-triazol-4-yl)methyl]amine (34 μM), copper (II) sulfate (1 mM), and biotin-linker-azide where the linker was functionalized with a TEV protease recognition sequence along with an isotopically light or heavy valine for treatment of control or treated proteome, respectively. After click reactions, proteomes were precipitated by centrifugation at 6500×g, washed in ice-cold methanol, combined in a 1:1 control/treated ratio, washed again, then denatured and re-solubilized by heating in 1.2% SDS/PBS to 80° C. for 5 minutes. Insoluble components were precipitated by centrifugation at 6500×g and soluble proteome was diluted in 0.2% SDS/PBS (5 ml). Labeled proteins were bound to avidin-agarose beads (170 μl re-suspended beads/sample) while rotating overnight at 4° C. Bead-linked proteins were enriched by washing three times each in PBS and water, then re-suspended in urea/PBS (6 M), reduced in TCEP (1 mM), alkylated with iodoacetamide (18 mM), then washed and re-suspended in urea/PBS (2 M), and finally trypsinized overnight with 0.5 μg/μl sequencing grade trypsin. Tryptic peptides were eluted off. Beads were washed in PBS (3 times) and water (3 times), washed in TEV buffer solution (water, TEV buffer, 100 μM dithiothreitol), and re-suspended in buffer with Ac-TEV protease and then incubated overnight. Peptides were diluted in water, acidified with formic acid (1.2 M), and prepared for analysis.
(§3) Peptides from all proteomic experiments were pressure-loaded onto an Agilent 600 series RP-HPLC system equipped with a capillary tubing (250 mm) packed with Aqua C18 reverse-phase resin (4 cm). The system was previously equilibrated with a gradient (0% B to 100% B over 10 minutes, 100% B for 5 minutes, then 0% B for 5 minutes; buffer A: 95:5 water:acetonitrile, 0.1% formic acid; buffer B: 80:20 acetonitrile:water, 0.1% formic acid). The samples were then attached using a MicroTee PEEK 360 μm fitting to a laser pulled column (13 cm) packed with Aqua C18 reverse-phase resin (10 cm) and strong-cation exchange resin (3 cm) for isoTOP-ABPP studies. Samples were analyzed using an Q Exactive Plus mass spectrometer using a 5-step Multidimensional Protein Identification Technology (MudPIT) program. The system was run using a gradient (5% B to 55% B; buffer A: 95:5 water:acetonitrile, 0.1% formic acid; buffer B: 80:20 acetonitrile:water, 0.1% formic acid), along with a salt bump feeding aqueous ammonium acetate (500 mM) at an increment of 0%, 25%, 50%, 80%, to 100%. Data was collected in data-dependent acquisition mode with dynamic exclusion enabled (60 sec). One full MS scan (400-1800 m/z) (MS1 scan) was conducted, followed by MS2 scan (ITMS) (15 times) of the most abundant ions. Heated capillary temperature was set to 200° C. and the nanospray voltage was set to 2.75 kV.
(§4) Data was extracted in the form of MS1 and MS2 files using Raw Extractor 1.9.9.2 and searched against the Uniprot […] database using ProLuCID search methodology in IP2 v.3, described in “J Proteomics 129:16-24 (2015)” by Xu T, et al. Cysteine residues were searched with a static modification for carboxyaminomethylation (+m/z 57.02146), up to two differential modifications for methionine oxidation, and either the light or heavy TEV tags (+m/z 464.28596 or +m/z 470.29977, respectively). Peptides were required to have at least one tryptic end and to contain the TEV modification. ProLUCID data was filtered through DTASelect to achieve a peptide false-positive rate below 1%. […]

TXNDC17 C43 = molecular target: T4, TXNDC17 C43 (Homo sapiens, UniProt Q9BRA2); assay: as above; format: binding; conditions: 100 μM, 4 h in 231MFP cells in situ
T4 construct: IsoTOP-ABPP analysis of DKM 2-90 treatment in 231MFP cells in situ; endogenous in cells; host or cells: 231MFP cells
T4 sequence (Q9BRA2 1-123): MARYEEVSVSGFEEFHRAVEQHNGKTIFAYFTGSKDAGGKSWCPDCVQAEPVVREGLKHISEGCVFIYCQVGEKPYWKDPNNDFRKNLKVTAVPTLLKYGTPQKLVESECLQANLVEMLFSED
Description: as §2, §3, §4

For `CC1=C(CO)C(=O)O[C@@H]([C@@H](C)[C@H]2CC[C@H]3[C@@H]4C[C@H]5O[C@]56[C@@H](O)C=CC(=O)[C@]6(C)[C@H]4CC[C@]23C)C1` [withaferin A, reference compound], the cell proliferation (MCF7 cells) was “impairs”, the cell proliferation (HCC38 cells [1]) was “impairs” and the serum-free cell survival (HCC38 cells [2]) was “impairs”. The “competition against IAyne labeling of pure human KEAP1” value (pure human KEAP1) was “no competition” and the “competition against IAyne labeling of pure human vimentin” value (pure human vimentin) was “lack of competition”.

With `O=C(CCl)N(Cc1ccccc1)c1ccc2c(c1)OCCO2` [JNS 1-40, N-benzyl-2-chloro-N-(2,3-dihydrobenzo[b][1,4]dioxin-6-yl)acetamide] the “overt toxicity or body weight loss” value [3] was “did not cause any overt toxicity or body weight loss”.

With `O=C(CCl)Nc1ccc2c(c1)OCCO2` [DKM 2-90, 2-Chloro-N-(2,3-dihydrobenzo[β][1,4]dioxin-6-yl)acetamide] the “toxicity to MCF 10A cells (cell proliferation)” value [4] was “less toxic than DKM 2-91”, the “isotopically light to heavy ratio, CLIC4 C35” value (CLIC4 C35) was over 5 and the “isotopically light to heavy ratio, TXNDC17 C43” value (TXNDC17 C43) was over 5.
